The target of one assay is T1, TG3 (transglutaminase 3) (Homo sapiens, UniProt Q08188).
T1 construct: purchased Zedira T012
T1 sequence (Q08188 1-693): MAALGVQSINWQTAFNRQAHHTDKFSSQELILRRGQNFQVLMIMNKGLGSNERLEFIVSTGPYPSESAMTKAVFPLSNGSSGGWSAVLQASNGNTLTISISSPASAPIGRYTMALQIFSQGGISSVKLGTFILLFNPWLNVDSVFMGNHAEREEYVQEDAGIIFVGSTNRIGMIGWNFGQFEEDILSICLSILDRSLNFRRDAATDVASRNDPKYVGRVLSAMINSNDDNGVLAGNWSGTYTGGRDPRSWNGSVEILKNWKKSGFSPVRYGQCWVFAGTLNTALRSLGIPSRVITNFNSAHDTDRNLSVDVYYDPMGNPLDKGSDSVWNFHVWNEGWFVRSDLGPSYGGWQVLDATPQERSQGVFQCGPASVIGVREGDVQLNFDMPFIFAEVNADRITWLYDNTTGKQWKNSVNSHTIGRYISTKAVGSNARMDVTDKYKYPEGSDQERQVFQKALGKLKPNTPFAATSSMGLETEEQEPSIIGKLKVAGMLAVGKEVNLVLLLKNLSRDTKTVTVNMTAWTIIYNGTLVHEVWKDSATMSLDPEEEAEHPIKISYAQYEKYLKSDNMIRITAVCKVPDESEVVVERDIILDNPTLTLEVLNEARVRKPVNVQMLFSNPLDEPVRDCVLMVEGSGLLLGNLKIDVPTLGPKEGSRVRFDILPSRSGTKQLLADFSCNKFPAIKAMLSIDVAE
Kind of assay: Comparative transglutaminase selectivity assay with casein and dansylcadaverine as substrates: TG3. The following applies: casein as substrate. Format: biochemical. An excerpt: The comparative determination of different transglutaminases to determine the selectivity was made with casein and dansylcadaverine as substrates. Therefore, the kit T036 (Zedira, Darmstadt; Refs: Lorand et al, Anal Biochem, 1971, 44:221-31) as well as transglutaminase products T009 (transglutaminase 1), T012 (transglutaminase 3), T021 (transglutaminase 6) and T027 (plasma transglutaminase, factor XIII) are used. Therefore, two different IC50 values for the compounds are given.
The evaluation of the resulting enzyme activity is done using the slope of the straight line obtained by the increase in fluorescence.
To determine the non-inhibited enzyme activity, DMSO instead of inhibitor stock solution is used. IC50 values are determined by plotting the resulting enzyme activity against the logarithm of the inhibitor concentration. IC50 is defined as the concentration of inhibitor resulting in 50% of enzyme activity.
It should be noted that it was measured here against casein as substrate, which is why other apparent inhibition values (IC50 value) result.

The target of assay [1] is T2, His tagged recombinant human tissue transglutaminase (His6-rh-TG2) (Homo sapiens, UniProt P21980).
T2 construct: purchased Zedira T002
T2 sequence (P21980 1-687): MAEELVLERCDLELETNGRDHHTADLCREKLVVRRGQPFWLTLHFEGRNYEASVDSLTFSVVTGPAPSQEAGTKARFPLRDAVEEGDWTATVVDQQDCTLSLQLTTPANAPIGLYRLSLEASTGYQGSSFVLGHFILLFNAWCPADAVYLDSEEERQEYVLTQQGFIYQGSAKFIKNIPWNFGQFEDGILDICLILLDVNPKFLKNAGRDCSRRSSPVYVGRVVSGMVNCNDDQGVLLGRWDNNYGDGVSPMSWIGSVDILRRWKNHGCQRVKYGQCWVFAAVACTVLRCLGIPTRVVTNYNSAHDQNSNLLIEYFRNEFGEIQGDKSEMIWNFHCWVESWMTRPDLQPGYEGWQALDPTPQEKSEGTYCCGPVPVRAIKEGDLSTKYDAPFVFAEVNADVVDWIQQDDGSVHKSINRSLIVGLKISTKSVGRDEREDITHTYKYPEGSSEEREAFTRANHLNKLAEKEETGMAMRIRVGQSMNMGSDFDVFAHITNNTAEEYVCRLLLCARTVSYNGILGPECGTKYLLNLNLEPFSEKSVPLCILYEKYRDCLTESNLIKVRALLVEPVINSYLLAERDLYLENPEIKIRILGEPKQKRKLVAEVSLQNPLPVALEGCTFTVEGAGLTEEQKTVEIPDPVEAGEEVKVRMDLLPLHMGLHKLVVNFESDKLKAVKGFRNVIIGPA
Kind of assay: Inactivation of human tissue transglutaminase, fluorescence assay with Abz-APE(CAD-DNP)QEA-OH. Type of assay: biochemical. The following applies: substrate Abz-APE(CAD-DNP)QEA-OH, 37° C., pH=7.5. The procedure, abridged:
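His6-rh-TG2 (10 μg per assay) was preincubated 5 min at 37 °C with inhibitor in Tris/CaCl2/PEG8000/DTT/glycine methyl ester assay solution (50 μM Abz-APE(CAD-DNP)QEA-OH), pH 7.5, DMSO <0.2%. Fluorescence (ex 313/em 418 nm) read over 15–30 min and activity taken from the slope. IC50 from activity vs log inhibitor concentration.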

Our source for the IC50 values is patent publication US9434763B2, “Derivatives of pyridinone as inhibitors for tissue transglutaminase” (ZEDIRA GMBH, priority 2012, dated 2016).

As usually defined, the IC50 is the midpoint of a concentration-inhibition curve.

Consider `CCOC(=O)/C=C/CC[C@H](NC(C)=O)C(=O)Nc1cccn(CC(=O)NCCC(C)C)c1=O` [A7, (S,E)-Ethyl 6-acetamido-7-(1-(2-(isopentylamino)-2-oxoethyl)-2-oxo-1,2-dihydropyridin-3-ylamino)-7-oxohept-2-enoate], for which, on TG3 (transglutaminase 3), the IC50 was determined as 84.1 µM. With `CCOC(=O)/C=C/CC[C@H](NC(=O)c1cncn1C)C(=O)Nc1cccn(CC(=O)NCCC(C)C)c1=O` [A19, (S,E)-Ethyl 7-(1-(2-(isopentylamino)-2-oxoethyl)-2-oxo-1,2-dihydropyridin-3-ylamino)-6-(1-methyl-1H-imidazole-5-carboxamido)-7-oxohept-2-enoate], the IC50 in assay [1] worked out at 0.08 µM; on TG3 (transglutaminase 3) it was 128 µM. With `CCOC(=O)/C=C/CC[C@H](NC(=O)CCC(=O)O)C(=O)Nc1cccn(CC(=O)NCCC(C)C)c1=O` [A24, (S,E)-4-(7-Ethoxy-1-(1-(2-(isopentylamino)-2-oxoethyl)-2-oxo-1,2-dihydropyridin-3-ylamino)-1,7-dioxohept-5-en-2-ylamino)-4-oxobutanoic acid], the results for the half-inhibitory concentration (IC50) (in assay [1]; against TG3 (transglutaminase 3)) were 0.173 µM and 119 µM, respectively.

In turn, `COC(=O)/C=C/CC[C@H](NC(C)=O)C(=O)Nc1cccn(CC(=O)NCCC(C)C)c1=O` [A29, (S,E)-methyl 6-acetamido-7-(1-(2-(isopentylamino)-2-oxoethyl)-2-oxo-1,2-dihydropyridin-3-ylamino)-7-oxohept-2-enoate] came in with an IC50 against TG3 (transglutaminase 3) of 70.9 µM. Consider `CCOC(=O)/C=C/CC[C@H](NC(=O)CCC(=O)O)C(=O)Nc1cccn(CC(=O)NCC(CC)CC)c1=O` [A30, (S,E)-4-(7-Ethoxy-1-(1-(2-(2-ethylbutylamino)-2-oxoethyl)-2-oxo-1,2-dihydropyridin-3-ylamino)-1,7-dioxohept-5-en-2-ylamino)-4-oxobutanoic acid], for which the IC50 is 0.116 µM in assay [1] and 69 µM on TG3 (transglutaminase 3). Regarding `CCOC(=O)/C=C/CC[C@H](NC(C)=O)C(=O)Nc1cccn(CC(=O)N[C@H](C(=O)OC)[C@H](C)CC)c1=O` [A35, (S,E)-ethyl 6-acetamido-7-(1-(2-((2S,3R)-1-methoxy-3-methyl-1-oxopentan-2-ylamino)-2-oxoethyl)-2-oxo-1,2-dihydropyridin-3-ylamino)-7-oxohept-2-enoate], the 50% inhibitory concentration (IC50) in assay [1] was found to be 0.055 µM; against TG3 (transglutaminase 3), 95.8 µM. On the same counts, the results for `CCOC(=O)/C=C/CC[C@H](NC(C)=O)C(=O)Nc1cccn(CC(=O)NCCC(CC)CC)c1=O` [A42, (S,E)-ethyl 6-acetamido-7-(1-(2-(3-ethylpentylamino)-2-oxoethyl)-2-oxo-1,2-dihydropyridin-3-ylamino)-7-oxohept-2-enoate] are 0.147 µM and 104 µM.

On to `CCOC(=O)/C=C/CC[C@H](NC(=O)c1cncn1C)C(=O)Nc1cccn(CC(=O)N[C@H](C(=O)O)[C@H](C)CC)c1=O` [A53, (2S,3R)-2-(2-(3-((S,E)-7-Ethoxy-2-(1-methyl-1H-imidazole-5-carboxamido)-7-oxohept-5-enamido)-2-oxopyridin-1(2H)-yl)acetamido)-3-methylpentanoic acid], for which the IC50 in assay [1] was found to be 0.06 µM; against TG3 (transglutaminase 3), 72.6 µM. On to `CCOC(=O)/C=C/CC[C@H](NC(=O)c1cncn1C)C(=O)Nc1cccn(CC(=O)NCC(CC)CC)c1=O` [A58, (S,E)-Ethyl 7-(1-(2-(2-ethylbutylamino)-2-oxoethyl)-2-oxo-1,2-dihydropyridin-3-ylamino)-6-(1-methyl-1H-imidazole-5-carboxamido)-7-oxohept-2-enoate], for which the IC50 against TG3 (transglutaminase 3) is 109 µM. On to `CCOC(=O)/C=C/CC[C@H](NC(=O)c1ccccc1)C(=O)Nc1cccn(CC(=O)N[C@H](C(=O)O)[C@H](C)CC)c1=O` [A59, (2S,3R)-2-(2-(3-((S,E)-2-Benzamido-7-ethoxy-7-oxohept-5-enamido)-2-oxopyridin-1(2H)-yl)acetamido)-3-methylpentanoic acid], for which the results for the IC50 (in assay [1]; at TG3 (transglutaminase 3)) were 0.043 µM and 41.1 µM, respectively. For `CC[C@@H](C)[C@H](NC(=O)Cn1cccc(NC(=O)[C@H](CC/C=C/C(=O)OC)NC(=O)c2cncn2C)c1=O)C(=O)O` [A60, (2S,3R)-2-(2-(3-((S,E)-7-Methoxy-2-(1-methyl-1H-imidazole-5-carboxamido)-7-oxohept-5-enamido)-2-oxopyridin-1(2H)-yl)acetamido)-3-methylpentanoic acid] the same measures were 0.054 µM and 42.3 µM.

Consider `CC[C@@H](C)[C@H](NC(=O)Cn1cccc(NC(=O)[C@H](CC/C=C/C(=O)OC)NC(=O)c2ccccc2)c1=O)C(=O)O` [A61, (2S,3R)-2-(2-(3-((S,E)-2-benzamido-7-methoxy-7-oxohept-5-enamido)-2-oxopyridin-1(2H)-yl)acetamido)-3-methylpentanoic acid], for which half-maximal inhibition at TG3 (transglutaminase 3) (IC50) was put at 17.6 µM. In the case of `CCOC(=O)/C=C/CC[C@H](NC(C)=O)C(=O)Nc1cccn(CC(=O)NCC(CC)CC)c1=O` [A62, (S,E)-Ethyl 6-acetamido-7-(1-(2-(2-ethylbutylamino)-2-oxoethyl)-2-oxo-1,2-dihydropyridin-3-ylamino)-7-oxohept-2-enoate], the IC50 in assay [1] amounted to 0.093 µM; against TG3 (transglutaminase 3), 99.7 µM. For `CCC(CC)CNC(=O)Cn1cccc(NC(=O)[C@H](CC/C=C/C(=O)OC)NC(=O)c2cncn2C)c1=O` [A63, (S,E)-Methyl 7-(1-(2-(2-ethylbutylamino)-2-oxoethyl)-2-oxo-1,2-dihydropyridin-3-ylamino)-6-(1-methyl-1H-imidazole-5-carboxamido)-7-oxohept-2-enoate] the same measures were 0.045 µM and 73.9 µM. Turning to `COC(=O)/C=C/CC[C@H](NC(C)=O)C(=O)Nc1cccn(CC(=O)N2CCCC(C)C2)c1=O` (stereo partly drawn) [A64, (6S,E)-Methyl 6-acetamido-7-(1-(2-(3-methylpipendin-1-yl)-2-oxoethyl)-2-oxo-1,2-dihydropyridin-3-ylamino)-7-oxohept-2-enoate], the figures for the concentration for half-maximal inhibition (IC50) (in assay [1]; on TG3 (transglutaminase 3)) were 0.141 µM and 125 µM, respectively. For `COC(=O)/C=C/CC[C@H](NC(C)=O)C(=O)Nc1cccn(CC(=O)N2CCC(C(F)(F)F)CC2)c1=O` [A65, (S,E)-Methyl 6-acetamido-7-oxo-7-(2-oxo-1-(2-oxo-2-(4-(trifluoromethyl)piperidin-1-yl)ethyl)-1,2-dihydropyridin-3-ylamino)hept-2-enoate] the same measures were 0.132 µM and 100 µM. In the case of `CCC(CC)CNC(=O)Cn1cccc(NC(=O)[C@H](CC/C=C/C(=O)OC)NC(C)=O)c1=O` [A79, (S,E)-Methyl 6-acetamido-7-(1-(2-(2-ethylbutylamino)-2-oxoethyl)-2-oxo-1,2-dihydropyridin-3-ylamino)-7-oxohept-2-enoate], the values for the 50% inhibitory concentration (IC50) (in assay [1]; at TG3 (transglutaminase 3)) were 0.034 µM and 59.6 µM, respectively.
